# Laboratory results from ChEMBL document CHEMBL1147454, “6-Arylamino-7-chloro-quinazoline-5,8-diones as novel cytotoxic and DNA topoisomerase inhibitory agents” (Bioorg Med Chem Lett, 2004).
# Tests used:
# DNA topoisomerase II [1] = biological target: T1, DNA topoisomerase II (Homo sapiens, UniProt P11388+Q02880); experiment: In vitro inhibition of human DNA topoisomerase II activity.; assay type: protein assay; conditions: concentration not given here
# SNU-638 = experiment: In vitro cytotoxicity against human SNU-638 (stomach cancer) cell line.; assay type: functional, cell-based
# A549 = experiment: In vitro cytotoxicity against human A549 (lung cancer) cell line.; assay type: functional, cell-based
# Col2 = experiment: In vitro cytotoxicity against human Col2 (colon cancer) cell line.; assay type: functional, cell-based
# [2] = biological target: T2, DNA topoisomerase 1 (Homo sapiens) (UniProt P11387); experiment: In vitro inhibition of human DNA topoisomerase I activity.; parameters: concentration or dose not given beside the values; conditions: concentration not given here
# T2 sequence (whole entry): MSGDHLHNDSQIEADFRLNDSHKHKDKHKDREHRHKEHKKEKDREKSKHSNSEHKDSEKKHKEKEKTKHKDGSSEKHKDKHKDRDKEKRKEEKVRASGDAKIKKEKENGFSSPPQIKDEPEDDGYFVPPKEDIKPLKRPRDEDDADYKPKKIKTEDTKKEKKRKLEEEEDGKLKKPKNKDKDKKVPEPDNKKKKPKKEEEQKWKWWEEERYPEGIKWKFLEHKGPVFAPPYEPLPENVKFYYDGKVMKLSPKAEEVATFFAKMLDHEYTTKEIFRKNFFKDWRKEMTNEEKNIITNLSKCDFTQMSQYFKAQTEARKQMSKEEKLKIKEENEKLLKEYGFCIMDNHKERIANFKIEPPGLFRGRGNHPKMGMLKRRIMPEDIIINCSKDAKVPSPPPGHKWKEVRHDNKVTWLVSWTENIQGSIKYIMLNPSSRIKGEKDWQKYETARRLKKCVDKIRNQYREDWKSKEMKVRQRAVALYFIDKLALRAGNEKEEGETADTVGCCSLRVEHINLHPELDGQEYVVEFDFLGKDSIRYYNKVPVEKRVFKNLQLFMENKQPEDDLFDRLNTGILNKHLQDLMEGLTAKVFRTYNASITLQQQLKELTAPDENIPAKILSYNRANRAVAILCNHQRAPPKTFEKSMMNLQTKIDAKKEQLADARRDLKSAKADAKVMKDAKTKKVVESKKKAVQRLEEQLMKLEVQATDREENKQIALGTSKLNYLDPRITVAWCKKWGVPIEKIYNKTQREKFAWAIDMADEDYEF
# DNA topoisomerase II [3] = biological target: T1, DNA topoisomerase II; experiment: Inhibitory activity against DNA topoisomerase II; assay type: protein assay
# DNA topoisomerase II [4] = biological target: T1, DNA topoisomerase II; experiment: Inhibitory activity against topo II-mediated decatenation of DNA; assay type: protein assay
Compound,inhibition (DNA topoisomerase II [1]) [%],IC50 (SNU-638) [nM],IC50 (A549) [µM],IC50 (Col2) [µM],inhibition [2] [%],IC50 (DNA topoisomerase II [3]) [µM],IC50 (DNA topoisomerase II [4]) [µM]
CCOc1ccccc1/N=C1/C(=O)c2cncnc2C(O)=C1Cl,1,690,3.28,0.73,9,–,–
Cc1ccc(NC2=C(Cl)C(=O)c3ncncc3C2=O)cc1,1,730,5.81,0.87,12,–,–
Cc1ccc(/N=C2/C(=O)c3cncnc3C(O)=C2Cl)c(Br)c1,100,890,4.07,3.04,100,40.5,–
O=C1C(Nc2ccc3c(c2)OCO3)=C(Cl)C(=O)c2ncncc21,2,550,1.67,0.88,27,–,–
CCc1ccc(NC2=C(Cl)C(=O)c3ncncc3C2=O)cc1,4,640,3.44,0.7,88,–,–
Cc1cccc(NC2=C(Cl)C(=O)c3ncncc3C2=O)c1,2,970,5.17,5.67,96,–,–
O=C1C(Nc2ccccc2)=C(Cl)C(=O)c2ncncc21,41,770,3.54,1.19,27,–,–
COc1ccc(/N=C2/C(=O)c3cncnc3C(O)=C2Cl)c(OC)c1,20,610,2.02,1.07,35,–,–
CCc1ccccc1/N=C1/C(=O)c2cncnc2C(O)=C1Cl,82,700,4.65,4.37,20,–,–
Cc1c2ccncc2c(C)c2c1[nH]c1ccccc12 [ELLIPTECINE],–,2000,1.22,1.22,–,–,–
O=C1C(Nc2cccc(Br)c2)=C(Cl)C(=O)c2ncncc21,2,1180,3.68,5.07,9,–,–
O=C1C(Nc2ccccc2Br)=C(Cl)C(=O)c2ncncc21,99,990,4.47,3.4,89,–,17.3
Cc1ccc(NC2=C(Cl)C(=O)c3ncncc3C2=O)cc1C,20,990,4.49,3.73,100,–,–
O=C1C(Nc2cccc(Cl)c2)=C(Cl)C(=O)c2ncncc21,2,810,4.22,3.55,12,–,–
COc1cc([C@@H]2c3cc4c(cc3[C@@H](O[C@@H]3O[C@@H]5CO[C@@H](C)O[C@H]5[C@H](O)[C@H]3O)[C@H]3COC(=O)[C@H]23)OCO4)cc(OC)c1O,48,–,–,–,–,–,–
COc1cccc2c1C(=O)c1c(O)c3c(c(O)c1C2=O)C[C@@](O)(C(=O)CO)C[C@@H]3O[C@H]1C[C@H](N)[C@H](O)[C@H](C)O1 [DOXORUBICIN],–,690,0.3,0.52,–,–,–
Cc1ccccc1/N=C1/C(=O)c2cncnc2C(O)=C1Cl,6,900,3.6,3.77,29,–,–
O=C1C(Nc2ccc(Br)cc2)=C(Cl)C(=O)c2ncncc21,94,690,4.31,3.02,58,–,15.1
